Laboratory results as given in ChEMBL document CHEMBL3045802, “Synthesis and in vitro antitumor activity of new quinoline, pyrimido[4,5-b]quinoline, [1,2,3]triazino[4,5-b]quinoline, and [1,2,4]triazolo[2,3:3,4]pyrimido[6,5-b]quinoline analogs” (2013).

What was measured:
Type in all cases: functional
SK-MEL-2 = test: Cytotoxicity against Homo sapiens (human) SK-MEL-2 cells assessed as growth inhibition at 10 uM after 48 hr by coulter counter analysis; conditions: SK-MEL-2, 48 h, read-out: GI
Malme-3M = test: Cytotoxicity against Homo sapiens (human) MALME-3M cells assessed as growth inhibition at 10 uM after 48 hr by coulter counter analysis; conditions: read-out: GI
LOX IMVI = test: Cytotoxicity against Homo sapiens (human) LOXIMVI cells assessed as growth inhibition at 10 uM after 48 hr by coulter counter analysis; conditions: read-out: GI
SF-539 = test: Cytotoxicity against Homo sapiens (human) SF539 cells assessed as growth inhibition at 10 uM after 48 hr by coulter counter analysis; conditions: SF-539, 48 h, read-out: GI
SF-295 = test: Cytotoxicity against Homo sapiens (human) SF295 cells assessed as growth inhibition at 10 uM after 48 hr by coulter counter analysis; conditions: SF-295, 48 h, read-out: GI
OVCAR-4 = test: Cytotoxicity against Homo sapiens (human) OVCAR4 cells assessed as growth inhibition at 10 uM after 48 hr by coulter counter analysis; conditions: OVCAR-4, 48 h, read-out: GI
UACC-257 = test: Cytotoxicity against Homo sapiens (human) UACC257 cells assessed as growth inhibition at 10 uM after 48 hr by coulter counter analysis; conditions: UACC-257, 48 h, read-out: GI
SK-MEL-5 = test: Cytotoxicity against Homo sapiens (human) SK-MEL-5 cells assessed as growth inhibition at 10 uM after 48 hr by coulter counter analysis; conditions: SK-MEL-5, 48 h, read-out: GI
MDA-MB-468 = test: Cytotoxicity against Homo sapiens (human) MDA-MB-468 cells assessed as growth inhibition at 10 uM after 48 hr by coulter counter analysis; conditions: MDA-MB-468, 48 h, read-out: GI
BT-549 = test: Cytotoxicity against Homo sapiens (human) BT549 cells assessed as growth inhibition at 10 uM after 48 hr by coulter counter analysis; conditions: BT-549, 48 h, read-out: GI
Hs-578T = test: Cytotoxicity against Homo sapiens (human) Hs578T cells assessed as growth inhibition at 10 uM after 48 hr by coulter counter analysis; conditions: read-out: GI
MDA-MB-231 = test: Cytotoxicity against Homo sapiens (human) MDA-MB-231 cells assessed as growth inhibition at 10 uM after 48 hr by coulter counter analysis; conditions: MDA-MB-231, 48 h, read-out: GI
PC-3 = test: Cytotoxicity against Homo sapiens (human) PC3 cells assessed as growth inhibition at 10 uM after 48 hr by coulter counter analysis; conditions: PC-3, 48 h, read-out: GI
SN12C = test: Cytotoxicity against Homo sapiens (human) SN12C cells assessed as growth inhibition at 10 uM after 48 hr by coulter counter analysis; conditions: read-out: GI
RXF 393 = test: Cytotoxicity against Homo sapiens (human) RXF393 cells assessed as growth inhibition at 10 uM after 48 hr by coulter counter analysis; conditions: RXF 393, 48 h, read-out: GI
CAKI-1 = test: Cytotoxicity against Homo sapiens (human) Caki1 cells assessed as growth inhibition at 10 uM after 48 hr by coulter counter analysis; conditions: CAKI-1, 48 h, read-out: GI
ACHN = test: Cytotoxicity against Homo sapiens (human) ACHN cells assessed as growth inhibition at 10 uM after 48 hr by coulter counter analysis; conditions: read-out: GI
A498 = test: Cytotoxicity against Homo sapiens (human) A498 cells assessed as growth inhibition at 10 uM after 48 hr by coulter counter analysis; conditions: A498, 48 h, read-out: GI
SK-OV-3 = test: Cytotoxicity against Homo sapiens (human) SKOV3 cells assessed as growth inhibition at 10 uM after 48 hr by coulter counter analysis; conditions: SK-OV-3, 48 h, read-out: GI
[1] = Cytotoxicity against Homo sapiens (human) NCI-ADR-RES cells assessed as growth inhibition at 10 uM after 48 hr by coulter counter analysis; conditions: read-out: GI
OVCAR-8 = test: Cytotoxicity against Homo sapiens (human) OVCAR8 cells assessed as growth inhibition at 10 uM after 48 hr by coulter counter analysis; conditions: OVCAR-8, 48 h, read-out: GI
OVCAR-5 = test: Cytotoxicity against Homo sapiens (human) OVCAR5 cells assessed as growth inhibition at 10 uM after 48 hr by coulter counter analysis; conditions: OVCAR-5, 48 h, read-out: GI
HL-60(TB) = test: Cytotoxicity against Homo sapiens (human) HL-60(TB) cells assessed as growth inhibition at 10 uM after 48 hr by coulter counter analysis; conditions: HL-60, 48 h, read-out: GI
CCRF-CEM = test: Cytotoxicity against Homo sapiens (human) CCRF-CEM cells assessed as growth inhibition at 10 uM after 48 hr by coulter counter analysis; conditions: read-out: GI
SF-268 = test: Cytotoxicity against Homo sapiens (human) SF268 cells assessed as growth inhibition at 10 uM after 48 hr by coulter counter analysis; conditions: SF-268, 48 h, read-out: GI
HT-29 = test: Cytotoxicity against Homo sapiens (human) HT-29 cells assessed as growth inhibition at 10 uM after 48 hr by coulter counter analysis; conditions: HT-29, 48 h, read-out: GI
HCT-15 = test: Cytotoxicity against Homo sapiens (human) HCT15 cells assessed as growth inhibition at 10 uM after 48 hr by coulter counter analysis; conditions: HCT-15, 48 h, read-out: GI
HCT-116 = test: Cytotoxicity against Homo sapiens (human) HCT116 cells assessed as growth inhibition at 10 uM after 48 hr by coulter counter analysis; conditions: HCT-116, 48 h, read-out: GI
HCC 2998 = test: Cytotoxicity against Homo sapiens (human) HCC2998 cells assessed as growth inhibition at 10 uM after 48 hr by coulter counter analysis; conditions: HCC 2998, 48 h, read-out: GI
COLO 205 = test: Cytotoxicity against Homo sapiens (human) COLO205 cells assessed as growth inhibition at 10 uM after 48 hr by coulter counter analysis; conditions: COLO 205, 48 h, read-out: GI
NCI-H226 = test: Cytotoxicity against Homo sapiens (human) NCI-H226 cells assessed as growth inhibition at 10 uM after 48 hr by coulter counter analysis; conditions: NCI-H226, 48 h, read-out: GI
HOP-92 = test: Cytotoxicity against Homo sapiens (human) HOP92 cells assessed as growth inhibition at 10 uM after 48 hr by coulter counter analysis; conditions: HOP-92, 48 h, read-out: GI
EKVX = test: Cytotoxicity against Homo sapiens (human) EKVX cells assessed as growth inhibition at 10 uM after 48 hr by coulter counter analysis; conditions: read-out: GI
K562 = test: Cytotoxicity against Homo sapiens (human) K562 cells assessed as growth inhibition at 10 uM after 48 hr by coulter counter analysis; conditions: K562, 48 h, read-out: GI

Structure (SMILES) | inhibition of growth at 10 µM (SK-MEL-2) | inhibition of growth at 10 µM (Malme-3M) | inhibition of growth at 10 µM (LOX IMVI) | inhibition of growth at 10 µM (SF-539) | inhibition of growth at 10 µM (SF-295) | inhibition of growth at 10 µM (OVCAR-4) | inhibition of growth at 10 µM (UACC-257) | inhibition of growth at 10 µM (SK-MEL-5) | inhibition of growth at 10 µM (MDA-MB-468) | inhibition of growth at 10 µM (BT-549) | inhibition of growth at 10 µM (Hs-578T) | inhibition of growth at 10 µM (MDA-MB-231) | inhibition of growth at 10 µM (PC-3) | inhibition of growth at 10 µM (SN12C) | inhibition of growth at 10 µM (RXF 393) | inhibition of growth at 10 µM (CAKI-1) | inhibition of growth at 10 µM (ACHN) | inhibition of growth at 10 µM (A498) | inhibition of growth at 10 µM (SK-OV-3) | inhibition of growth at 10 µM [1] | further results
O=c1[nH]nnc2c1C(c1ccc(Cl)cc1)C1=C(CCCC1)N2 (configuration not stated) | < 10% | < 10% | < 10% | < 10% | < 10% | < 10% | < 10% | 13% | 13.3% | < 10% | < 10% | < 10% | 10.2% | < 10% | < 10% | 16.1% | < 10% | 28.3% | < 10% | < 10% | inhibition of growth at 10 µM (OVCAR-8): < 10%; inhibition of growth at 10 µM (OVCAR-5): < 10%; inhibition of growth at 10 µM (HL-60(TB)): < 10%; inhibition of growth at 10 µM (CCRF-CEM): < 10%; inhibition of growth at 10 µM (SF-268): < 10%; inhibition of growth at 10 µM (HT-29): < 10%; inhibition of growth at 10 µM (HCT-15): < 10%; inhibition of growth at 10 µM (HCT-116): < 10%; inhibition of growth at 10 µM (HCC 2998): < 10%; inhibition of growth at 10 µM (COLO 205): 13.5%; inhibition of growth at 10 µM (NCI-H226): 10.3%; inhibition of growth at 10 µM (HOP-92): < 10%; inhibition of growth at 10 µM (EKVX): 10.9%; inhibition of growth at 10 µM (K562): < 10%
COc1ccc(C2C3=C(CCCC3)Nc3nn[nH]c(=O)c32)cc1OC (configuration not stated) | < 10% | < 10% | < 10% | < 10% | < 10% | < 10% | < 10% | 10.9% | 21.1% | < 10% | < 10% | < 10% | 13.4% | 10.8% | 14.4% | 23.4% | 16% | 13.2% | < 10% | < 10% | inhibition of growth at 10 µM (OVCAR-8): < 10%; inhibition of growth at 10 µM (OVCAR-5): 12.6%; inhibition of growth at 10 µM (HL-60(TB)): < 10%; inhibition of growth at 10 µM (CCRF-CEM): < 10%; inhibition of growth at 10 µM (SF-268): < 10%; inhibition of growth at 10 µM (HT-29): < 10%; inhibition of growth at 10 µM (HCT-15): < 10%; inhibition of growth at 10 µM (HCT-116): < 10%; inhibition of growth at 10 µM (HCC 2998): < 10%; inhibition of growth at 10 µM (COLO 205): 15.9%; inhibition of growth at 10 µM (NCI-H226): 15.9%; inhibition of growth at 10 µM (HOP-92): 13.3%; inhibition of growth at 10 µM (EKVX): < 10%; inhibition of growth at 10 µM (K562): < 10%
COc1ccc(C2C3=C(CCCC3)Nc3[nH]c(=S)nc(NC(N)=S)c32)cc1OC (configuration not stated) | 12.6% | 10.9% | 16.1% | 21.1% | 14.4% | < 10% | < 10% | 25.5% | 14.2% | < 10% | 17.7% | 17.4% | 23.5% | < 10% | 14.3% | 10% | 11.4% | < 10% | 18.6% | 11.7% | inhibition of growth at 10 µM (OVCAR-8): < 10%; inhibition of growth at 10 µM (OVCAR-5): < 10%; inhibition of growth at 10 µM (HL-60(TB)): < 10%; inhibition of growth at 10 µM (CCRF-CEM): < 10%; inhibition of growth at 10 µM (SF-268): < 10%; inhibition of growth at 10 µM (HT-29): < 10%; inhibition of growth at 10 µM (HCT-15): 10.2%; inhibition of growth at 10 µM (HCT-116): < 10%; inhibition of growth at 10 µM (HCC 2998): < 10%; inhibition of growth at 10 µM (COLO 205): 12.8%; inhibition of growth at 10 µM (NCI-H226): 18.6%; inhibition of growth at 10 µM (HOP-92): 25.8%; inhibition of growth at 10 µM (EKVX): < 10%; inhibition of growth at 10 µM (K562): 17.6%
